Source: paper PMC4161155 (Journal of Medicinal Chemistry, 2014)

Experiments:
rNTS2 receptor [1] = target: T1, rNTS2 receptor (Rattus norvegicus, UniProt Q63384); experiment: NTS2 FLIPR calcium mobilization assay, agonist mode; assay type: cell-based; details: for agonist behaviour in the NTS2 FLIPR assay (calcium release): CHO cell line stably expressing rNTS2, FLIPR Tetra, pilot study
T1 sequence (Q63384 1-416): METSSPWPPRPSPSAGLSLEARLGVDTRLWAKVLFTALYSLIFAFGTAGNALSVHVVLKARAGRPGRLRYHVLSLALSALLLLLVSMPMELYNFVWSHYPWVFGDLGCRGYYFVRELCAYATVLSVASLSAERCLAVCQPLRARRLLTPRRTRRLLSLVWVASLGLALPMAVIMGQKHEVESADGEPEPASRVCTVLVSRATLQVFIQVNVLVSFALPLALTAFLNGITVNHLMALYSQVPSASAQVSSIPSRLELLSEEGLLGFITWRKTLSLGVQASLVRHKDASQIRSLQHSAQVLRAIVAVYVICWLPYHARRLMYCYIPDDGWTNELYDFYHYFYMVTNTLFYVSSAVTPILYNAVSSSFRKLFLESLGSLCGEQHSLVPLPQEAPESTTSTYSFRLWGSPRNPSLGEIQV

rNTS2 receptor [2] = target: T1, rNTS2 receptor; experiment: Competitive binding assay versus [125I]NT at NTS2; details: ratio of Ki values, versus compound 13
rNTS2 receptor [3] = target: T1, rNTS2 receptor; experiment: NTS2 FLIPR calcium mobilization assay, antagonist mode; assay type: cell-based; details: for type of antagonism of 3b in the Ke experiment at NTS2: Ke assays against dose-response curves of control agonist 3b
NTS1 = NTS1 (Rattus norvegicus, UniProt P20789); experiment: NTS1 FLIPR assay; assay type: cell-based; details: data not shown
NTS1, sequence (P20789 whole entry): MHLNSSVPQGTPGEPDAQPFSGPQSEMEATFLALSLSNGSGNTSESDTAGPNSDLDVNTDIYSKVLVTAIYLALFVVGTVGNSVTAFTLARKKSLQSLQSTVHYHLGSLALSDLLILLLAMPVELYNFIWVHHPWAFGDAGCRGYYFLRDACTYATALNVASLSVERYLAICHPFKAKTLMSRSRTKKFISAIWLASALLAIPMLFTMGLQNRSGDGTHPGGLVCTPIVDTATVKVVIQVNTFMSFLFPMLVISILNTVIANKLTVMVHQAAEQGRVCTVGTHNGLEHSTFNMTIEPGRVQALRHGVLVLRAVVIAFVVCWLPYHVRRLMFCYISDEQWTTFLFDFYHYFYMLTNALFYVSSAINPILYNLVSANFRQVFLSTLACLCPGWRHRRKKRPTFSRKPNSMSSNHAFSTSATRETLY

## COc1cccc(OC)c1-c1cc(C(=O)NC2(C(=O)O)C3CC4CC(C3)CC2C4)nn1-c1ccnc2cc(Cl)ccc12 (stereo not shown) [3a]
rNTS2 receptor [1]
  agonist behaviour in the NTS2 FLIPR assay (calcium release): full agonists

## COc1cccc(OC)c1-c1cc(C(=O)NC2(C(=O)O)C3CC4CC(C3)CC2C4)nn1-c1ccc(C(=O)N(C)CCCN(C)C)cc1C(C)C (stereo not shown) [3b]
rNTS2 receptor [1]
  agonist behaviour in the NTS2 FLIPR assay (calcium release): full agonists

## C[C@@H]1CN([C@H]2CC[C@](C#N)(c3ccc(F)cc3)CC2)CC[C@]1(C(=O)O)c1ccccc1 [Levocabastine, levocabastine]
rNTS2 receptor [1]
  agonist behaviour in the NTS2 FLIPR assay (calcium release): potent partial agonist activity
rNTS2 receptor [1]; read-out: FLIPR assay NTS2 Emax
  Emax: 14 to 16%

## Cc1ccc(S(=O)(=O)Nc2ccc3c(c2)c(C(=O)C(F)(F)F)cn3CC(=O)N[C@@H](CC(C)C)C(=O)O)cc1 [compound 5, N-{[5-{[(4-Methylphenyl)sulfonyl]amino}-3-(trifluoroacetyl)-1H-indol-1-yl]acetyl}-L-leucine]
rNTS2 receptor [2]
  fold boost to NTS2 binding affinity versus 13: 7.5 fold
rNTS2 receptor [3]
  type of antagonism of 3b in the Ke experiment at NTS2: insurmountable antagonist activity
rNTS2 receptor [3]; ratio of IC50 values, versus compound 13
  fold more active than 13 in the NTS2 FLIPR assay (antagonist activity): 90 fold
rNTS2 receptor [3]; ratio of IC50 values, versus endogenous ligand NT
  fold more active than NT in the NTS2 FLIPR assay: ~3 fold
NTS1
  activity in the NTS1 FLIPR assay: Neither of the test compounds (5 or 13) showed activity

## Cc1ccc(S(=O)(=O)Nc2ccc3c(ccn3CC(=O)N[C@@H](CC(C)C)C(=O)O)c2)cc1 [compound 13, N-[(5-{[(4-Methylphenyl)sulfonyl]amino}-1H-indol-1-yl)acetyl]-L-leucine]
rNTS2 receptor [3]
  type of antagonism of 3b in the Ke experiment at NTS2: insurmountable
NTS1
  activity in the NTS1 FLIPR assay: Neither of the test compounds (5 or 13) showed activity
NTS1; single concentration 10 μM
  activity at NTS1 in library screen: no activity at NTS1
rNTS2 receptor [1]; single concentration 10 μM
  NTS2 agonist activity in library screen: devoid of NTS2 agonist activity
